Measured values published in PubChem BioAssay AID256 (DTP/NCI, 2004).
“And” between values parts separate entries of the source, which are not always exact repeats. Identical values can stand only once. Inconclusive results and toxic doses are left out. Rule for the calls: active = survival T/C of 150% or more; inactive = T/C below 125% in these data.

Test system: CD2F1 mice, L1210 leukemia ip, survival T/C
Experiment: NCI In Vivo Anticancer Drug Screen. Data for tumor model L1210 Leukemia (intraperitoneal) in CD2F1 (CDF1) mice
Conditions: higher = longer survival
Procedure, shortened: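 Each value reflects a quotient of treated over vehicle control outcomes in mice with a transplanted tumor.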

[1] = endpoint: mean survival time, dose: 25.0 mg/kg/injection, schedule: Q01DX009 (ip), vehicle: saline with Tween-80
[2] = endpoint: mean survival time, dose: 50.0 mg/kg/injection, schedule: Q01DX009 (ip), vehicle: saline with Tween-80
[3] = endpoint: mean survival time, dose: 100.0 mg/kg/injection, schedule: Q01DX009 (ip), vehicle: saline with Tween-80
[4] = endpoint: mean survival time, dose: 100.0 mg/kg/injection, schedule: Q04DX003 (ip), vehicle: saline with Tween-80
[5] = endpoint: mean survival time, dose: 200.0 mg/kg/injection, schedule: Q01DX009 (ip), vehicle: saline with Tween-80
[6] = endpoint: mean survival time, dose: 400.0 mg/kg/injection, schedule: Q01DX009 (ip), vehicle: saline with Tween-80

Measured: T/C

COS(=O)(=O)C=C(c1ccccc1)c1ccccc1
inactive: endpoint: mean survival time, dose: 75.0 mg/kg/injection, schedule: Q01DX009 (ip), vehicle: saline 103 % of control | endpoint: mean survival time, dose: 75.0 mg/kg/injection, schedule: Q04DX003 (ip), vehicle: saline 91 % of control | endpoint: mean survival time, dose: 150.0 mg/kg/injection, schedule: Q01DX009 (ip), vehicle: saline 100 % of control | endpoint: mean survival time, dose: 150.0 mg/kg/injection, schedule: Q04DX003 (ip), vehicle: saline 94 % of control | endpoint: mean survival time, dose: 300.0 mg/kg/injection, schedule: Q01DX009 (ip), vehicle: saline 100 % of control | endpoint: mean survival time, dose: 300.0 mg/kg/injection, schedule: Q04DX003 (ip), vehicle: saline 91 % of control

O=C1CCCC2C3CC(CN12)C1CCCCN1C3 (stereo not drawn)
inactive: [1] 103 % of control | [2] 101 % of control | [3] 100 % of control | [4] 97 % of control

COc1cc2ccc(/C=C/C(=O)c3ccc4c(c3)OCO4)cc2cc1OC
inactive: endpoint: mean survival time, dose: 25.0 mg/kg/injection, schedule: Q01DX009 (ip), vehicle: water 98 % of control | endpoint: mean survival time, dose: 50.0 mg/kg/injection, schedule: Q01DX009 (ip), vehicle: water 91 % of control | endpoint: mean survival time, dose: 100.0 mg/kg/injection, schedule: Q01DX009 (ip), vehicle: water 88 % of control | endpoint: mean survival time, dose: 200.0 mg/kg/injection, schedule: Q01DX009 (ip), vehicle: water 90 % of control | endpoint: mean survival time, dose: 400.0 mg/kg/injection, schedule: Q01DX009 (ip), vehicle: water 88 % of control

CCCCOCC(C)O (stereo not drawn)
inactive: endpoint: mean survival time, dose: 100.0 mg/kg/injection, schedule: Q01DX009 (ip), vehicle: saline 97 % of control | endpoint: mean survival time, dose: 200.0 mg/kg/injection, schedule: Q01DX009 (ip), vehicle: saline 101 % of control | endpoint: mean survival time, dose: 400.0 mg/kg/injection, schedule: Q01DX009 (ip), vehicle: saline 100 % of control

CCN(CC)S(=O)(=O)c1ccc(-c2cc(Cl)c3cc(S(=O)(=O)F)ccc3n2)cc1
inactive: [3] 107 % of control | [5] 87 % of control | [6] 91 % of control

O=C(Nc1cc(Cl)c(I)c(Cl)c1)C(F)(F)F
inactive: endpoint: mean survival time, dose: 100.0 mg/kg/injection, schedule: Q01DX001 (ip), vehicle: saline 98 % of control | endpoint: mean survival time, dose: 200.0 mg/kg/injection, schedule: Q01DX001 (ip), vehicle: saline 101 % of control | endpoint: mean survival time, dose: 400.0 mg/kg/injection, schedule: Q01DX001 (ip), vehicle: saline 98 % of control

CCSC(C(O)C(O)C(O)CO)n1cc(F)c(=O)[nH]c1=O (stereo not drawn)
inactive: endpoint: mean survival time, dose: 12.5 mg/kg/injection, schedule: Q01DX005 (ip), vehicle: water 104 % of control | endpoint: mean survival time, dose: 25.0 mg/kg/injection, schedule: Q01DX005 (ip), vehicle: water 105 % of control | endpoint: mean survival time, dose: 50.0 mg/kg/injection, schedule: Q01DX005 (ip), vehicle: water 110 % of control | endpoint: mean survival time, dose: 100.0 mg/kg/injection, schedule: Q01DX005 (ip), vehicle: water 105 % of control | endpoint: mean survival time, dose: 200.0 mg/kg/injection, schedule: Q01DX005 (ip), vehicle: water 104 % of control

O=[N+]([O-])c1cccc2c1ccc1cccnc12
inactive: endpoint: mean survival time, dose: 100.0 mg/kg/injection, schedule: Q04DX002 (ip), vehicle: saline with Tween-80 90 % of control | endpoint: mean survival time, dose: 200.0 mg/kg/injection, schedule: Q04DX002 (ip), vehicle: saline with Tween-80 95 % of control | endpoint: mean survival time, dose: 400.0 mg/kg/injection, schedule: Q04DX002 (ip), vehicle: saline with Tween-80 98 % of control

CC1CC([O-])=N/[N+]1=C\c1ccccc1 (stereo not drawn)
inactive: endpoint: mean survival time, dose: 100.0 mg/kg/injection, schedule: Q04DX003 (ip), vehicle: saline 101 % of control | endpoint: mean survival time, dose: 200.0 mg/kg/injection, schedule: Q04DX003 (ip), vehicle: saline 96 % of control | endpoint: mean survival time, dose: 400.0 mg/kg/injection, schedule: Q04DX003 (ip), vehicle: saline 94 % of control

C1CCC(C2CCCC[N-]2)[N-]C1.CC([NH-])C(=O)O.[Cl][Pt] (stereo not drawn)
inactive: endpoint: median survival time, dose: 10.0 mg/kg/injection, schedule: Q04DX003 (ip), vehicle: saline 107 % of control | endpoint: median survival time, dose: 20.0 mg/kg/injection, schedule: Q04DX003 (ip), vehicle: saline 105 % of control | endpoint: median survival time, dose: 40.0 mg/kg/injection, schedule: Q04DX003 (ip), vehicle: saline 110 % of control | endpoint: median survival time, dose: 80.0 mg/kg/injection, schedule: Q04DX003 (ip), vehicle: saline 97 % of control and 104 % of control | endpoint: median survival time, dose: 160.0 mg/kg/injection, schedule: Q04DX003 (ip), vehicle: saline 108 % of control | endpoint: median survival time, dose: 320.0 mg/kg/injection, schedule: Q04DX003 (ip), vehicle: saline 96 % of control

CCOc1c(Cl)cc(Cl)cc1C(c1ccccc1S(=O)(=O)O)c1cc(Cl)cc(Cl)c1OCC
inactive: endpoint: mean survival time, dose: 6.25 mg/kg/injection, schedule: Q01DX009 (ip), vehicle: saline sonified 97 % of control | endpoint: mean survival time, dose: 6.25 mg/kg/injection, schedule: Q04DX003 (ip), vehicle: saline sonified 97 % of control | endpoint: mean survival time, dose: 12.5 mg/kg/injection, schedule: Q01DX009 (ip), vehicle: saline sonified 96 % of control | endpoint: mean survival time, dose: 12.5 mg/kg/injection, schedule: Q04DX003 (ip), vehicle: saline sonified 103 % of control | endpoint: mean survival time, dose: 25.0 mg/kg/injection, schedule: Q01DX009 (ip), vehicle: saline sonified 96 % of control | endpoint: mean survival time, dose: 25.0 mg/kg/injection, schedule: Q04DX003 (ip), vehicle: saline sonified 95 % of control

CCOC(=O)CN1C(=O)NC(c2ccccc2)(c2ccccc2)C1=O
inactive: [3] 94 % of control | endpoint: mean survival time, dose: 100.0 mg/kg/injection, schedule: Q04DX003 (ip), vehicle: acetone 97 % of control | endpoint: mean survival time, dose: 200.0 mg/kg/injection, schedule: Q04DX003 (ip), vehicle: acetone 101 % of control | [6] 94 % of control | endpoint: mean survival time, dose: 400.0 mg/kg/injection, schedule: Q04DX003 (ip), vehicle: acetone 103 % of control

CCCCCCCCCCCCCCCCSc1cccc(C)c1
inactive: endpoint: mean survival time, dose: 100.0 mg/kg/injection, schedule: Q04DX003 (ip), vehicle: Klucel (hydroxypropylcellulose) (HPC) 95 % of control | endpoint: mean survival time, dose: 200.0 mg/kg/injection, schedule: Q04DX003 (ip), vehicle: Klucel (hydroxypropylcellulose) (HPC) 92 % of control | endpoint: mean survival time, dose: 400.0 mg/kg/injection, schedule: Q04DX003 (ip), vehicle: Klucel (hydroxypropylcellulose) (HPC) 98 % of control

C=CN1C(=O)NC2(CCCCC2)C1=O
inactive: [1] 96 % of control | endpoint: mean survival time, dose: 25.0 mg/kg/injection, schedule: Q04DX003 (ip), vehicle: saline with Tween-80 92 % of control | [2] 96 % of control | endpoint: mean survival time, dose: 50.0 mg/kg/injection, schedule: Q04DX003 (ip), vehicle: saline with Tween-80 97 % of control | [4] 95 % of control

Nc1nc(N)c2c(n1)CN(c1ccc(Cl)cc1)C2
inactive: endpoint: mean survival time, dose: 75.0 mg/kg/injection, schedule: Q01DX001 (ip), vehicle: saline 104 % of control | endpoint: mean survival time, dose: 150.0 mg/kg/injection, schedule: Q01DX001 (ip), vehicle: saline 96 % of control | endpoint: mean survival time, dose: 300.0 mg/kg/injection, schedule: Q01DX001 (ip), vehicle: saline 98 % of control

CCC1(c2ccccc2)C(=O)N(Cl)C(=O)N(Cl)C1=O
inactive: endpoint: mean survival time, dose: 25.0 mg/kg/injection, schedule: Q01DX001 (ip), vehicle: saline with Tween-80 101 % of control | endpoint: mean survival time, dose: 50.0 mg/kg/injection, schedule: Q01DX001 (ip), vehicle: saline with Tween-80 95 % of control | endpoint: mean survival time, dose: 100.0 mg/kg/injection, schedule: Q01DX001 (ip), vehicle: saline with Tween-80 95 % of control and 100 % of control

CCOC(=O)C(OCC)C1=Cc2ccccc2CC1 (stereo not drawn)
inactive: endpoint: mean survival time, dose: 12.5 mg/kg/injection, schedule: Q01DX005 (ip), vehicle: Klucel (hydroxypropylcellulose) (HPC) 97 % of control | endpoint: mean survival time, dose: 25.0 mg/kg/injection, schedule: Q01DX005 (ip), vehicle: Klucel (hydroxypropylcellulose) (HPC) 97 % of control | endpoint: mean survival time, dose: 50.0 mg/kg/injection, schedule: Q01DX005 (ip), vehicle: Klucel (hydroxypropylcellulose) (HPC) 98 % of control | endpoint: mean survival time, dose: 100.0 mg/kg/injection, schedule: Q01DX005 (ip), vehicle: Klucel (hydroxypropylcellulose) (HPC) 93 % of control | endpoint: mean survival time, dose: 200.0 mg/kg/injection, schedule: Q01DX005 (ip), vehicle: Klucel (hydroxypropylcellulose) (HPC) 89 % of control | endpoint: mean survival time, dose: 400.0 mg/kg/injection, schedule: Q01DX005 (ip), vehicle: Klucel (hydroxypropylcellulose) (HPC) 98 % of control

COc1ccc([N+](=O)[O-])cc1NC(=O)Nc1cccc(C(F)(F)F)c1
inactive: endpoint: mean survival time, dose: 50.0 mg/kg/injection, schedule: Q01DX001 (ip), vehicle: Klucel (hydroxypropylcellulose) (HPC) 101 % of control | endpoint: mean survival time, dose: 100.0 mg/kg/injection, schedule: Q01DX001 (ip), vehicle: Klucel (hydroxypropylcellulose) (HPC) 96 % of control | endpoint: mean survival time, dose: 200.0 mg/kg/injection, schedule: Q01DX001 (ip), vehicle: Klucel (hydroxypropylcellulose) (HPC) 93 % of control

COc1ccc(CCN2COc3ccc4ccc(=O)oc4c3C2)cc1OC
inactive: [3] 92 % of control | [5] 97 % of control | [6] 97 % of control
